# Tested on: PDE IV
# Test: Inhibition of PDE IV activity
# Assay type: biochemical
# Settings: Inhibition of PDE IV activity (Table A)
row,Compound,-log IC50
1,"COc1ccc(C(=O)Nc2c(Cl)cncc2Cl)c2cc(C(C)C)oc12 [Compound 2, N-(3,5-Dichloropyrid-4-yl)-7-methoxy-2-(1-methylethyl)benzofuran-4-carboxamide]",9.28
2,"COc1ccc(C(=O)Nc2c(Cl)cncc2Cl)c2cc(C3CCCC3)oc12 [Compound 5, N-(3,5-Dichloropyrid-4-yl)-2-cyclopentyl-7-methoxybenzofuran-4-carboxamide]",8.80

# Results, then the molecule that gave them:
row,-log IC50,Compound
1,8.42,"COc1ccc(C(=O)Nc2c(Cl)cncc2Cl)c2cc(C)oc12 [Compound 1, N-(3,5-Dichloropyrid-4-yl)-7-methoxy-2-methylbenzofuran-4-carboxamide]"
2,8.18,"COc1ccc(C(=O)Nc2c(Cl)cncc2Cl)c2cc(C(C)C)oc12 [Compound 3, N-(3,5-Dichloropyrid-4-yl)-7-methoxy-2-(1-methylethyl)benzofuran-4-carboxamide]"
3,9.72,"CC(C)c1cc2c(C(=O)Nc3c(Cl)cncc3Cl)ccc(OC(F)F)c2o1 [Compound 4, N-(3,5-Dichloropyrid-4-yl)-7-difluoromethoxy-2-(1-methylethyl)benzofuran-4-carboxamide]"
